# Key:
# HBV εRNA = test: εRNA/oligonucleotide hybridization inhibition assay with rRNA competitor; format: binding, Hepatitis B virus; conditions: for IC50: radiolabeled εRNA, 60-fold excess rRNA competitor; for Specificity: ratio RRE+rRNA IC50/εRNA+rRNA IC50, max = inactive in RRE assay
# From the text: One assay used in determining the activity of the compounds of the present invention is disclosed in copending U.S. patent application Ser. No. 08/709,342, filed Sep. 6, 1996, the disclosure of which is hereby incorporated herein by reference in its entirety. The assay detects the interaction between target RNA molecule and a test ligand by measuring the ligand's ability to inhibit hybridization between the RNA and a specific complementary oligonucleotide. In one embodiment, the target RNA is radiolabelled and the oligonucleotide is labeled with biotin; in this case, the extent of hybridization is determined by measuring the amount of radiolabeled RNA detected with a streptavidin/biotin-based capture system.
# Concentrations of test compounds of between about 0.1 μM and about 200 μM are assayed for inhibition using radiolabeled εRNA in the absence or presence of a large excess of an unlabeled non-specific RNA competitor (such as, e.g., ribosomal RNA, rRNA). Compounds that bind εRNA non-specifically are competitively displaced by the rRNA, resulting in reduced or no inhibition of hybridization between the radiolabeled εRNA and the biotinylated oligonucleotide. Conversely, the inhibitory activity of compounds that specifically bind εRNA is not affected by the presence of the competitor rRNA.
# The high throughput assays were performed in 96-well plates containing eighty drugs (5 μl, 60 μg/ml in DMSO) distributed one per well in columns 2-6 and 8-12 of the 8×12 96-well array. The remaining 16 wells in columns 1 and 7 were filled with 5 μl DMSO to serve as the control reactions. 45 μl of reaction mixture containing buffer, salts and radiolabeled target RNA were delivered on each well of the compound-containing plates to yield a 50 μl mixture containing 50 mM Tris-HCl, pH 7.5, 200 mM KCl, 5 mM MgCl2, 5 mM DTT, 6 μg/ml test compound, and 25 nM [^32 P]-labeled εRNA. The reaction was started by addition of the biotinylated oligonucleotide, 262.104 A (5 μl) to a final concentration of 100 nM. The reaction was incubated at 25° C. for 60 minutes, and then 5 μl of 0.3 mg/ml SAAP (streptavidin alkaline phosphatase conjugate, Pierce, Rockford, Ill.) was added. The reaction was incubated for an additional 30 minutes at 25° C. and filtered through 96-well format HATF nitrocellulose filters (Millipore, Bedford, Mass.) using a multiscreen vacuum manifold (Millipore, Bedford, Mass.). Subsequently, 300 μl of wash buffer (50 mM Tris-HCl, pH 7.5, 200 mM KCl) was filtered through to wash the filters. The filters were dried and supplemented with 20 μl scintillation fluid (Super Mix, Wallac Oy, Turku, Finland). The amount of hybrids formed was determined by scintillation counting of the radiolabeled εRNA retained on the filters.
# The inhibitory effect of a test compound (expressed as percentage of inhibition, % Inh.) was calculated using the following formula: […]
# where Ro is the average retention of hybrids in the 16 identical control reactions in columns 1 and 7 and Rx is the hybrids retained in the presence of a test drug, x.
# (§1) Biotinylated oligonucleotides 262.104 A (5′-biotin-TTAGGCACAGCTTGGAGGCTTGAACAGTG-3′) and 208.92 A (5′-biotin-CGTCATTGACGCTGCGCCCA-3′) were synthetically prepared (Oligos Etc., Willsonville, Oreg.). These oligonucleotides are complementary to regions of the εRNA and RRE RNA targets, respectively.
# A plasmid containing the target sequence following the bacteriophage SP6 promoter was used as a template for the synthesis of radiolabeled εRNA using [α^32 P]-UTP and SP6 RNA polymerase as described by the suppliers, e.g., Ambion, Austin, Tex., and by methods well known to those of ordinary skill in the art.
# Compounds that inhibited the primary screening assay described above were individually titrated in the same assay at concentrations between 0.1 μM and 200 μM in the absence and presence of 60-fold excess rRNA as a non-specific competitor. […]
# HIV derived RRE RNA = test: heterologous hybridization inhibition assay with RRE RNA; format: binding; conditions: radiolabeled RRE RNA, rRNA competitor
# From the text: Specificity is further tested in a third assay in which the radiolabeled RNA is the HIV derived RRE RNA and the biotinylated oligonucleotide is complementary to RRE. Compounds with high specific activity for εRNA are not expected to be inhibitory in the RRE RNA based assay. The specificity of the ligand for εRNA is expressed as the ratio between the IC50 value obtained with the specific target RNA and the IC50 value obtained with a heterologous target (RRE RNA), both in the presence of competitor RNA.
# as §1
# Compounds that inhibited the primary screening assay described above were individually titrated in the same assay at concentrations between 0.1 μM and 200 μM in the absence and presence of 60-fold excess rRNA as a non-specific competitor. A third titration was performed in a heterologous assay using radiolabeled RRE RNA as the target and the complementary biotinylated oligonucleotide 208.92 A. From these three assays, the IC50 values and specificity for each compound was calculated.
# IC50 values using rRNA competitor (from Example 1) and radiolabeled RRE RNA are shown in Table 1 for the following ligands. […] Specificity is calculated as the ratio of RRE+rRNA IC50/εRNA+rRNA IC50.
Compound,IC50 (HBV εRNA),Specificity (HBV εRNA),RRE + rRNA IC50 (μM) (HIV derived RRE RNA),IC50 (HIV derived RRE RNA)
CCCCN(CCCC)c1nc(NN=Cc2ccc([N+](=O)[O-])cc2)nc(Nc2ccc([N+](=O)[O-])cc2)n1 [Compound 5],49.3 µM,max.,inactive,
Cc1[nH]c2ccccc2c1C=NNc1nc(Nc2ccccc2)nc(Nc2ccc([N+](=O)[O-])cc2)n1 [Compound 6],10.4 µM,max.,inactive,
Cc1ccc(Nc2nc(NN=Cc3ccccc3)nc(Nc3ccccc3)n2)c(C)c1 [Compound 7],2.4 µM,max.,Inactive,
CCCCN(CCCC)c1nc(N/N=C/c2cc(I)cc(I)c2O)nc(Nc2ccc([N+](=O)[O-])cc2)n1 [Compound 8],4 µM,max.,inactive,
Cc1ccc(Nc2nc(NN=Cc3ccc(O)cc3O)nc(Nc3ccc([N+](=O)[O-])cc3)n2)cc1C [Compound 9],6.2 µM,132.6,inactive,
Cc1ccccc1Nc1nc(NN=Cc2ccc(I)cc2)nc(Nc2ccc([N+](=O)[O-])cc2)n1 [Compound 10],12 µM,max.,inactive,
CCCCN(CCCC)c1nc(NN=Cc2ccc3c(c2)OCO3)nc(Nc2ccc([N+](=O)[O-])cc2)n1 [Compound 11],15 µM,max.,inactive,
Cc1ccc(Nc2nc(NN=Cc3ccccc3O)nc(Nc3ccc([N+](=O)[O-])cc3)n2)cc1C [Compound 12],2.6 µM,max.,inactive,
CCN(CC)c1nc(NN=Cc2ccc([N+](=O)[O-])cc2)nc(Nc2ccccc2)n1 [Compound 13],4.9 µM,max.,inactive,
COc1c(Br)cc(Br)cc1C=NNc1nc(Nc2ccccc2)nc(N2CCCCC2)n1 [Compound 14],7.1 µM,max.,inactive,
Cc1ccc(C=NNc2nc(Nc3ccc([N+](=O)[O-])cc3)nc(Nc3ccccc3C)n2)cc1 [Compound 15],11 µM,max.,inactive,
CCCCN(CCCC)c1nc(NN=Cc2ccc(Cl)cc2)nc(Nc2ccc([N+](=O)[O-])cc2)n1 [Compound 16],12.1 µM,max.,inactive,
CC(C=NNc1nc(Nc2ccc([N+](=O)[O-])cc2)nc(Nc2ccc(C)c(C)c2)n1)=Cc1ccccc1 [Compound 19],9.9 µM,max.,inactive,
COc1ccc(Nc2nc(NN=Cc3ccc(OC)cc3OC)nc(Nc3ccccc3)n2)cc1 [Compound 20],11.7 µM,max.,inactive,
FC(F)(F)c1cccc(Nc2nc(Nc3ccccc3)nc(N3CCOCC3)n2)c1 [Compound 21],14.4 µM,max.,inactive,
COc1ccc(Nc2nc(NN=Cc3ccc(Cl)cc3)nc(Nc3ccccc3)n2)cc1 [Compound 22],3.6 µM,max.,inactive,
CCCCN(CCCC)c1nc(NN=Cc2ccc(OCC)c(O)c2)nc(Nc2ccc([N+](=O)[O-])cc2)n1 [Compound 23],5.7 µM,max.,inactive,

Compound,IC50 (HBV εRNA),Specificity (HBV εRNA),RRE + rRNA IC50 (μM) (HIV derived RRE RNA),IC50 (HIV derived RRE RNA)
O=[N+]([O-])c1ccc(Nc2nc(NCc3ccccc3)nc(NN=Cc3ccccc3)n2)cc1 [Compound 24],10 µM,max.,inactive,
Cc1ccc(Nc2nc(NN=Cc3ccccc3)nc(Nc3ccccc3)n2)cc1 [Compound 25],11.9 µM,max.,inactive,
CCN(CC)CCNc1ccc2c3c(cccc13)C(=O)N(Nc1nc(NCc3ccccc3)nc(N(CC)CC)n1)C2=O [Compound 27],15.5 µM,max.,inactive,
COc1ccc(Br)cc1/C=N/Nc1nc(Nc2cccc([N+](=O)[O-])c2)nc(N2CCOCC2)n1 [Compound 28],18.9 µM,max.,inactive,
Cc1ccccc1Nc1nc(NN=Cc2ccc3c(c2)OCO3)nc(Nc2ccc([N+](=O)[O-])cc2)n1 [Compound 29],24.8 µM,max.,inactive,
Cc1ccc(Nc2nc(NN=Cc3cccc(I)c3)nc(Nc3ccccc3)n2)cc1 [Compound 30],25 µM,max.,inactive,
Oc1ccc(I)cc1C=NNc1nc(NCc2ccccc2)nc(Nc2ccccc2)n1 [Compound 33],37.2 µM,max.,inactive,
Oc1c(Br)cc(Cl)cc1/C=N/Nc1nc(Nc2cccc(C(F)(F)F)c2)nc(N2CCOCC2)n1 [Compound 34],21 µM,max.,inactive,
CCCCN(CCCC)c1nc(NN=Cc2cccc(Cl)c2)nc(Nc2ccc([N+](=O)[O-])cc2)n1 [Compound 35],24.9 µM,max.,inactive,
Cc1ccc(Nc2nc(NN=Cc3ccc(I)cc3)nc(Nc3ccccc3)n2)c(C)c1 [Compound 113],33.1 µM,9.1,,300 µM
O=[N+]([O-])c1ccc(Nc2nc(NN=Cc3ccc(Br)cc3)nc(N3CCCCCC3)n2)cc1 [Compound 117],15.6 µM,max.,inactive,
FC(F)(F)c1cccc(Nc2nc(NN=Cc3ccc(Cl)cc3)nc(N3CCOCC3)n2)c1 [Compound 120],46 µM,24.1,,1110 µM
C(=Cc1ccccc1)C=NNc1nc(Nc2ccccc2)nc(Nc2ccccc2)n1 [Compound 125],35.1 µM,28.5,,1000 µM
"CCN(CC)c1nc(NCc2ccccc2)nc(N/N=C/c2ccccc2O)n1 [Compound 155, 2-hydroxybenzaldehyde N-[4-(benzylamino)-6-(diethylamino)-1,3,5-triazin-2-yl]hydrazone]",25.5 µM,max.,inactive,
COc1ccc(Nc2nc(NN=Cc3ccc(O)cc3O)nc(Nc3ccccc3)n2)cc1 [Compound 158],7.4 µM,max.,inactive,
Cc1ccc(Nc2nc(NN=Cc3cc(I)ccc3O)nc(Nc3ccccc3)n2)c(C)c1 [Compound 159],2.7 µM,max.,inactive,
